Measured values as given in PubChem BioAssay (NCI).
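Growth conditions: 96-well plates. Treatment: test compound, 48 hours, 5 concentrations. Analysis: linear interpolation between bracketing concentrations; unreached endpoints set to highest concentration. Definition used: TGI = concentration required for complete inhibition of growth.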

Key:
Assay in all cases: DTP human tumour cell line panel, 48 h
786-0 renal = tested on: 786-0 renal
A549 NSCLC = tested on: A549 NSCLC
ACHN renal = tested on: ACHN renal
CAKI-1 renal = tested on: CAKI-1 renal
CCRF-CEM leukemia = tested on: CCRF-CEM leukemia
COLO 205 colon = tested on: COLO 205 colon
DLD-1 colon = tested on: DLD-1 colon
DMS 114 small cell lung = tested on: DMS 114 small cell lung
DMS 273 small cell lung = tested on: DMS 273 small cell lung
EKVX NSCLC = tested on: EKVX NSCLC
HCC-2998 colon = tested on: HCC-2998 colon
HCT-116 colon = tested on: HCT-116 colon
HCT-15 colon = tested on: HCT-15 colon
HOP-18 NSCLC = tested on: HOP-18 NSCLC
HOP-62 NSCLC = tested on: HOP-62 NSCLC
HT29 colon = tested on: HT29 colon
IGROV1 ovarian = tested on: IGROV1 ovarian
K-562 leukemia = tested on: K-562 leukemia
KM20L2 colon = tested on: KM20L2 colon
LOX IMVI melanoma = tested on: LOX IMVI melanoma
LXFL 529 NSCLC = tested on: LXFL 529 NSCLC
M14 melanoma = tested on: M14 melanoma
M19-MEL melanoma = tested on: M19-MEL melanoma
MALME-3M melanoma = tested on: MALME-3M melanoma
MOLT-4 leukemia = tested on: MOLT-4 leukemia
NCI-H226 lung = tested on: NCI-H226 lung
NCI-H23 lung = tested on: NCI-H23 lung
NCI-H460 lung = tested on: NCI-H460 lung
NCI-H522 lung = tested on: NCI-H522 lung
OVCAR-3 ovarian = tested on: OVCAR-3 ovarian
OVCAR-4 ovarian = tested on: OVCAR-4 ovarian
OVCAR-5 ovarian = tested on: OVCAR-5 ovarian
OVCAR-8 ovarian = tested on: OVCAR-8 ovarian
RPMI-8226 leukemia = tested on: RPMI-8226 leukemia
RXF 393 renal = tested on: RXF 393 renal
SF-268 CNS = tested on: SF-268 CNS
SF-295 CNS = tested on: SF-295 CNS
SF-539 CNS = tested on: SF-539 CNS
SK-MEL-2 melanoma = tested on: SK-MEL-2 melanoma
SK-MEL-28 melanoma = tested on: SK-MEL-28 melanoma
SK-MEL-5 melanoma = tested on: SK-MEL-5 melanoma
SK-OV-3 ovarian = tested on: SK-OV-3 ovarian
SN12C renal = tested on: SN12C renal
SNB-19 CNS = tested on: SNB-19 CNS
SNB-75 CNS = tested on: SNB-75 CNS
SNB-78 CNS = tested on: SNB-78 CNS
SW-620 colon = tested on: SW-620 colon
TK-10 renal = tested on: TK-10 renal
U251 CNS = tested on: U251 CNS
UACC-257 melanoma = tested on: UACC-257 melanoma
UACC-62 melanoma = tested on: UACC-62 melanoma
UO-31 renal = tested on: UO-31 renal
XF 498 CNS = tested on: XF 498 CNS
A498 renal = tested on: A498 renal
BT-549 breast = tested on: BT-549 breast
DU-145 prostate = tested on: DU-145 prostate
HL-60(TB) leukemia = tested on: HL-60(TB) leukemia
HOP-92 NSCLC = tested on: HOP-92 NSCLC
HS 578T breast = tested on: HS 578T breast
KM12 colon = tested on: KM12 colon
MCF7 breast = tested on: MCF7 breast
MDA-MB-231 breast = tested on: MDA-MB-231 breast
MDA-MB-435 = tested on: MDA-MB-435
MDA-N = tested on: MDA-N
NCI/ADR-RES ovarian = tested on: NCI/ADR-RES ovarian
PC-3 prostate = tested on: PC-3 prostate
SR leukemia = tested on: SR leukemia
T-47D breast = tested on: T-47D breast

## O=C(O)[C@@H](NS(=O)(=O)c1ccc(F)cc1)c1ccccc1
786-0 renal
  TGI: > 100 µM
A549 NSCLC
  TGI: > 100 µM
ACHN renal
  TGI: > 100 µM
CAKI-1 renal
  TGI: > 100 µM
CCRF-CEM leukemia
  TGI: > 100 µM
COLO 205 colon
  TGI: > 100 µM
DLD-1 colon
  TGI: > 100 µM
DMS 114 small cell lung
  TGI: > 100 µM
DMS 273 small cell lung
  TGI: > 100 µM
EKVX NSCLC
  TGI: > 100 µM
HCC-2998 colon
  TGI: > 100 µM
HCT-116 colon
  TGI: > 100 µM
HCT-15 colon
  TGI: > 100 µM
HOP-18 NSCLC
  TGI: > 100 µM
HOP-62 NSCLC
  TGI: > 100 µM
HT29 colon
  TGI: > 100 µM
IGROV1 ovarian
  TGI: > 100 µM
K-562 leukemia
  TGI: > 100 µM
KM20L2 colon
  TGI: > 100 µM
LOX IMVI melanoma
  TGI: > 100 µM
LXFL 529 NSCLC
  TGI: > 100 µM
M14 melanoma
  TGI: > 100 µM
M19-MEL melanoma
  TGI: > 100 µM
MALME-3M melanoma
  TGI: > 100 µM
MOLT-4 leukemia
  TGI: > 100 µM
NCI-H226 lung
  TGI: > 100 µM
NCI-H23 lung
  TGI: > 100 µM
NCI-H460 lung
  TGI: > 100 µM
NCI-H522 lung
  TGI: > 100 µM
OVCAR-3 ovarian
  TGI: > 100 µM
OVCAR-4 ovarian
  TGI: > 100 µM
OVCAR-5 ovarian
  TGI: > 100 µM
OVCAR-8 ovarian
  TGI: > 100 µM
RPMI-8226 leukemia
  TGI: > 100 µM
RXF 393 renal
  TGI: > 100 µM
SF-268 CNS
  TGI: > 100 µM
SF-295 CNS
  TGI: > 100 µM
SF-539 CNS
  TGI: > 100 µM
SK-MEL-2 melanoma
  TGI: > 100 µM
SK-MEL-28 melanoma
  TGI: > 100 µM
SK-MEL-5 melanoma
  TGI: > 100 µM
SK-OV-3 ovarian
  TGI: > 100 µM
SN12C renal
  TGI: > 100 µM
SNB-19 CNS
  TGI: > 100 µM
SNB-75 CNS
  TGI: > 100 µM
SNB-78 CNS
  TGI: > 100 µM
SW-620 colon
  TGI: > 100 µM
TK-10 renal
  TGI: > 100 µM
U251 CNS
  TGI: > 100 µM
UACC-257 melanoma
  TGI: > 100 µM
UACC-62 melanoma
  TGI: > 100 µM
UO-31 renal
  TGI: > 100 µM
XF 498 CNS
  TGI: > 100 µM

## COC(=O)N/N=C(/CC1(O)C(=O)Nc2ccc([N+](=O)[O-])cc21)c1ccccc1 (stereo not given)
786-0 renal
  TGI: > 54.4 µM
A498 renal
  TGI: 25.8 µM
A549 NSCLC
  TGI: > 100 µM
ACHN renal
  TGI: > 72.2 µM
BT-549 breast
  TGI: 92.3 µM
CAKI-1 renal
  TGI: > 100 µM
CCRF-CEM leukemia
  TGI: > 76.6 µM
COLO 205 colon
  TGI: > 82.5 µM
DLD-1 colon
  TGI: > 100 µM
DMS 114 small cell lung
  TGI: > 100 µM
DMS 273 small cell lung
  TGI: > 100 µM
DU-145 prostate
  TGI: > 100 µM
EKVX NSCLC
  TGI: > 93.4 µM
HCC-2998 colon
  TGI: > 100 µM
HCT-116 colon
  TGI: > 58.6 µM
HCT-15 colon
  TGI: > 70.6 µM
HL-60(TB) leukemia
  TGI: 58.8 µM
HOP-62 NSCLC
  TGI: > 90.2 µM
HOP-92 NSCLC
  TGI: > 100 µM
HS 578T breast
  TGI: 73.3 µM
HT29 colon
  TGI: > 79.4 µM
IGROV1 ovarian
  TGI: > 73.6 µM
K-562 leukemia
  TGI: > 87.2 µM
KM12 colon
  TGI: > 63.7 µM
KM20L2 colon
  TGI: > 100 µM
LOX IMVI melanoma
  TGI: 36.1 µM
LXFL 529 NSCLC
  TGI: > 100 µM
M14 melanoma
  TGI: > 64.8 µM
M19-MEL melanoma
  TGI: > 100 µM
MALME-3M melanoma
  TGI: > 75.4 µM
MCF7 breast
  TGI: 5.61 µM
MDA-MB-231 breast
  TGI: 44 µM
MDA-MB-435
  TGI: 57.3 µM
MDA-N
  TGI: 94.4 µM
MOLT-4 leukemia
  TGI: > 66.7 µM
NCI-H226 lung
  TGI: 98.3 µM
NCI-H23 lung
  TGI: > 60.1 µM
NCI-H460 lung
  TGI: > 100 µM
NCI-H522 lung
  TGI: > 75.9 µM
NCI/ADR-RES ovarian
  TGI: 55.7 µM
OVCAR-3 ovarian
  TGI: > 74.6 µM
OVCAR-4 ovarian
  TGI: > 84.7 µM
OVCAR-5 ovarian
  TGI: > 100 µM
OVCAR-8 ovarian
  TGI: > 68.5 µM
PC-3 prostate
  TGI: > 100 µM
RPMI-8226 leukemia
  TGI: 97.2 µM
RXF 393 renal
  TGI: 51.4 µM
SF-268 CNS
  TGI: > 100 µM
SF-295 CNS
  TGI: 39.2 µM
SF-539 CNS
  TGI: > 100 µM
SK-MEL-2 melanoma
  TGI: > 72.9 µM
SK-MEL-28 melanoma
  TGI: > 70.9 µM
SK-MEL-5 melanoma
  TGI: > 60.9 µM
SK-OV-3 ovarian
  TGI: > 100 µM
SN12C renal
  TGI: > 100 µM
SNB-19 CNS
  TGI: > 100 µM
SNB-75 CNS
  TGI: 54.9 µM
SNB-78 CNS
  TGI: 50.6 µM
SR leukemia
  TGI: > 68.3 µM
SW-620 colon
  TGI: > 69.4 µM
T-47D breast
  TGI: > 100 µM
TK-10 renal
  TGI: 57.6 µM
U251 CNS
  TGI: 76.9 µM
UACC-257 melanoma
  TGI: > 95.6 µM
UACC-62 melanoma
  TGI: > 54.7 µM
UO-31 renal
  TGI: 91.6 µM
XF 498 CNS
  TGI: 46.5 µM
